The values below come from US10668039B2, “Methods for treatment of adenoid cystic carcinoma” (THE CHILDREN'S MEDICAL CENTER CORPORATION, priority 2016, dated 2020).

Data set [1] concerns MYB. The data set is described as follows: RNA-seq of short-term ACC x9 primagrafts, MYB. The data set is classed as in vivo, human. The note with it: 3 days, n=3, p<0.05. The source says: (§1) Primagraft experiments: For in vivo drug testing, ACC tumor fragments from host animals were implanted subcutaneously into the flank of nude mice (CRL: ATH/NU). Once tumors reached 125-250 mm3, mice were randomized to receive vehicle or drug diluted in 10:90 DMSO:10% hydroxypropyl-beta-cyclodextrin orally until controls reached a tumor volume endpoint of 1-2 cm3 (4-9 mice per group: x5M1 and x6, 4 treated vs. 9 vehicle controls; x9, 4 treated vs. 5 vehicle controls; x11, 5 treated vs. 8 vehicle controls). Mice were treated with ATRA (ACC x6 and x11: 4 mg/mL, 0.2 mL flat dose; ACC×9: 3 mg/mL, 0.2 mL flat dose) or isotretinoin (30 mg/mL, 0.2 mL flat dose). Tumor growth was monitored and mice weighed twice weekly and studies ended when final group reached tumor volume endpoint. No statistical methods were employed to determine the sample size, and no blinding of investigators was performed. After long-term tumor growth inhibition studies were completed, the ATRA treated mice stopped receiving treatment and were maintained longer as indicated to monitor tumor maintenance after treatment cessation. For long-term tumor growth inhibition studies, ACC x6, x9, and x11 models were used and primagrafts collected at the completion of the study. Short-term kinetics studies were also undertaken with ACC x9 and x5M1 primagrafts involving 3 day ATRA treatments. […]

For a further data set, the system named is RARA and RARG. In words: RNA-seq of short-term ACC x9 primagrafts, RARA and RARG. The note with it: 3 days, n=3, p<0.05. The data set is classed as in vivo, human.
Text: as §1

The subject of the next data set is runx1. In words: In situ hybridization of whole embryos, runx1. In kind it is in vivo, zebrafish. The note with it: 10 μM, treated 48-72 hpf, fixed at 72 hpf. As for the experimental part:
(§2) In situ hybridization: Wildtype AB embryos from the same clutch were treated between 48-72 hpf with 10 μM retinoic acid agonists diluted in E3, fixed at 72 hpf in 4% paraformaldehyde, and processed as previously described. CHT staining in the embryos was blindly scored as high, medium, or low, and summed across 3 independent experiments as done previously. Representative images were acquired on a Nikon ZMS 18 microscope.

In another data set the test system is lyz:dsRed positive cells. The data set is described as follows: Confocal imaging of CHT, lyz:dsRed positive cells. The note with it: 10 μM, treated 48-72 hpf, imaged at 72 hpf. In kind it is in vivo, zebrafish. As for the experimental part:
(§3) Confocal imaging: Double transgenic c-myb:GFP; lyz:dsRed or c-myb:GFP; mpeg1:mCherry embryos from the same clutch were treated between 48-72 hpf (n=4 biological replicates per treatment group) with 10 μM ATRA diluted in E3. Live 72 hpf embryos were embedded in 0.8% low-melting point agarose containing 0.04 mg/mL Tricaine and imaged on a Nikon Eclipe Ti microscope with 20× Plan-Apo DIC N.A. 0.75. CHT cells were counted in Z-stack image projections processed on Imaris software (Bitplane).

The next data set deals with mpx. The data set is described as follows: In situ hybridization of whole embryos, mpx. The data set is classed as in vivo, zebrafish. The note with it: 10 μM, treated 48-72 hpf, fixed at 72 hpf. As for the experimental part:
as §2

The test system of data set [2] is mpeg1:mCherry positive cells. The data set is described as follows: Confocal imaging of CHT, mpeg1:mCherry positive cells. The data set is classed as in vivo, zebrafish. The following applies: 10 μM, treated 48-72 hpf, imaged at 72 hpf. The method, then:
as §3

In data set [3] the test system is MYB. The data set is described as follows: Western blot of ACC primagrafts, MYB. The data set is classed as in vivo, human. The note with it: long-term ACC x11 and short-term (3 days) ACC x5M1 primagrafts.
Text: as §1, with “performed.” for “performed. After long-term tumor growth inhibition studies were completed, the ATRA treated mice stopped receiving treatment and were maintained longer as indicated to monitor tumor maintenance after treatment cessation. For long-term tumor growth inhibition studies, ACC x6, x9, and x11 models were used and primagrafts collected at the completion of the study. Short-term kinetics studies were also undertaken with ACC x9 and x5M1 primagrafts involving 3 day ATRA treatments.”
(§4) Western blots: ACC x11 (from long-term tumor growth inhibition studies) and ACC x5M1 (from short-term kinetics studies) primagrafts were mechanically homogenized in RIPA lysis buffer (Thermo Scientific) supplemented by addition of complete protease inhibitor cocktail (Roche). Protein concentrations were determined by DC protein assay (BioRad).

The next data set deals with RARα. The data set is described as follows: Western blot of ACC primagrafts, RARα. The note with it: long-term ACC x11 and short-term (3 days) ACC x5M1 primagrafts. The data set is classed as in vivo, human.
Text: as §1, with “performed.” for “performed. After long-term tumor growth inhibition studies were completed, the ATRA treated mice stopped receiving treatment and were maintained longer as indicated to monitor tumor maintenance after treatment cessation. For long-term tumor growth inhibition studies, ACC x6, x9, and x11 models were used and primagrafts collected at the completion of the study. Short-term kinetics studies were also undertaken with ACC x9 and x5M1 primagrafts involving 3 day ATRA treatments.”
as §4
A general note: A western blot detects proteins with antibodies after separation by electrophoresis.

A further data set has as its system cleaved caspase-3. In words: Immunohistochemistry of ACC primagrafts, cleaved caspase-3. In kind it is in vivo, nude mice. The note with it: ACC x6, x9, x11 primagrafts at conclusion of long-term studies.
Text: as §1, with “performed.” for “performed. After long-term tumor growth inhibition studies were completed, the ATRA treated mice stopped receiving treatment and were maintained longer as indicated to monitor tumor maintenance after treatment cessation. For long-term tumor growth inhibition studies, ACC x6, x9, and x11 models were used and primagrafts collected at the completion of the study. Short-term kinetics studies were also undertaken with ACC x9 and x5M1 primagrafts involving 3 day ATRA treatments.”
Immunohistochemistry: Sectioning and staining was carried out by the Dana-Farber/Harvard Cancer Center Specialized Histopathology Core using standard procedures on ACC x6, x9, and x11 samples (from long-term tumor growth inhibition studies). […] Primary antibody was detected using Bond Polymer Refine Detection kit. […] Images (>200 nuclei each) from three different individual primagrafts were blindly quantitated.

Another data set deals with ACC PDX models. The data set is described as follows: ATRA comparison TGI studies in ACC PDX models. The data set is classed as in vivo. The note with it: ATRA 8 mg/kg to 32 mg/kg; tamibarotene 2 mg/kg. As for the experimental part:
The TGI studies in ACC PDX models were repeated in order to compare the original ATRA dose (3 or 4 mg/ml) against a more physiologically relevant dose of ATRA (8 mg/kg) and an alternative retinoid Tamibarotene (originally developed for ATRA-resistant cancer settings, approved in Japan and currently in development at Syros Pharmaceuticals).

A further data set deals with c-myb. In words: In situ hybridization of whole embryos, c-myb. The note with it: 10 μM, treated 48-72 hpf, fixed at 72 hpf. In kind it is in vivo, zebrafish. As for the experimental part: In situ hybridization: In situ hybridization was done for c-myb as described in North (2007). Wildtype AB zebrafish embryos were treated with RAs in the E3 water at the indicated doses during 48-72 hpf, after which point they were fixed in 4% PFA. Qualitative scoring (number of embryos with altered number of HSCs scored) of c-myb positive cells was conducted by assessing the caudal hematopoietic tissue (CHT) region by the tail.
as §2

The conditions of data set [4]: patients, 45 mg/m2 oral dose of ATRA, first day of treatment; cited from earlier work.
Another data set relates to c-myb:GFP positive cells. In words: Confocal imaging of CHT, c-myb:GFP positive cells. The data set is classed as in vivo, zebrafish. The following applies: 10 μM, treated 48-72 hpf, imaged at 72 hpf. As for the experimental part:
as §3

Entries after “also recorded” stand apart in the source; their conditions may differ.

For the compound `CC(C=CC1=C(C)CCCC1(C)C)=CC=C/C(C)=C/C(=O)O` [ATRA, (E)-3,7-dimethyl-9-(2,6,6-trimethyl-1-cyclo-hexen-1-yl)-2,4,6,8-nonatetraenoic acid], the “decrease of MYB levels” value in the data set on MYB [1] was roughly 20%. Moreover, the “increase of RARA and RARG gene levels” value in the data set on RARA and RARG is roughly 40%. The “runx1 expression (staining) in the CHT” value with runx1 is “significant decrease; also recorded: decreased staining”. Besides, the “lyz:dsRed+ cells in the CHT” value with lyz:dsRed positive cells is “no significant difference; also recorded: no significant effect”. The “mpx expression (staining) in the CHT” value with mpx is “no significant difference; also recorded: did not decrease staining”. In data set [2], the “mpeg1:mCherry+ cells in the CHT” value is “no significant difference; also recorded: no significant effect”. Besides, the “MYB protein expression (wildtype and fusion)” value in the data set with MYB [3] is given as “decreases”. For the same compound, the RARα protein expression entry in the data set with RARα was “increased”. In addition, the “cell death (cleaved caspase-3 positive nuclei)” value in the data set on cleaved caspase-3 is “induced more cell death”. Besides, in the data set with ACC PDX models, the “tumor growth inhibition in the PDX studies” value is “showed tumor growth inhibition”. The “c-myb expression (staining) in the CHT” value in the data set with c-myb is “significant decrease; also recorded: decreased staining”. Also, the median plasma concentration result in data set [4] is on record as “approximately 1 μM”. Further, in the data set on c-myb:GFP positive cells, the “number of c-myb:GFP+ cells in the CHT” value is given as “significant decrease; also recorded: decreased”.
